Assay results as given in US20060211026A1, “Methods for assessing emphysema” (Roche Palo Alto LLC, priority 2005, published 2006).

Key:
Type in all cases: in vivo, Sprague-Dawley rats
[1] = tested on: gene expression in lung right lobes of 8 months smoked rats; test: Lung gene expression by Affymetrix microarray in smoke-exposed rats
Method: (§1) (B) Adult male Sprague-Dawley rats were exposed daily to 10 cigarettes/rat for 8 months (control rats were exposed to air) to establish emphysema lesions. […] Supernatant from homogenized lung tissue was analyzed for concentration of tropoelastin by ELISA (using rabbit anti-tropoelastin; Elastin Products Co.).
Three individual lung right lobes from each condition were processed to extract mRNA according to standard Affymetrix protocols, and samples hybridized to Affymetrix Rat Expression Set 230 microarrays. Gene expression was analyzed using the Bioconductor package (Gentleman et al., Genome Biol (2004) v. 5), and differentially expressed genes selected using ANOVA model followed by Dunnett's test.

[2] = tested on: gene expression in lung right lobes of 8 months smoked rats; test: Lung gene expression by quantitative PCR in smoke-exposed rats; details: for Adam17 gene expression relative to 8 months smoked rats / Angpt1 gene expression relative to 8 months smoked rats / Areg gene expression relative to 8 months smoked rats / Colla1 gene expression relative to 8 months smoked rats / Crabp2 gene expression relative to 8 months smoked rats / Csf2 gene expression relative to 8 months smoked rats / Cxcl1 gene expression relative to 8 months smoked rats / Cxcl2 gene expression relative to 8 months smoked rats / Cxcl5 gene expression relative to 8 months smoked rats / Cyp26a1 gene expression relative to 8 months smoked rats / EGFR gene expression relative to 8 months smoked rats / Eln gene expression relative to 8 months smoked rats / FGF7 gene expression relative to 8 months smoked rats / Flt1 gene expression relative to 8 months smoked rats / Hif1a gene expression relative to 8 months smoked rats / HpGF gene expression relative to 8 months smoked rats / Hyou1 gene expression relative to 8 months smoked rats / Il6 gene expression relative to 8 months smoked rats / Il8ra/CXCR1 gene expression relative to 8 months smoked rats / Il8rb/CXCR2 gene expression relative to 8 months smoked rats / Kdr gene expression relative to 8 months smoked rats / Mmp9 gene expression relative to 8 months smoked rats / Mmp12 gene expression relative to 8 months smoked rats / PDGFA gene expression relative to 8 months smoked rats / Pgf gene expression relative to 8 months smoked rats / Rbp1 gene expression relative to 8 months smoked rats / Serpina1 gene expression relative to 8 months smoked rats / Sftpa1 gene expression relative to 8 months smoked rats / Sftpb gene expression relative to 8 months smoked rats / Slpi gene expression relative to 8 months smoked rats / TNF gene expression relative to 8 months smoked rats / Tek gene expression relative to 8 months smoked rats / Tgfb1 gene expression relative to 8 months smoked rats / Tgfbr2 gene expression relative to 8 months smoked rats / Tgm2 gene expression relative to 8 months smoked rats / Timp3 gene expression relative to 8 months smoked rats / VEGFa gene expression relative to 8 months smoked rats: rat lung
Method: as §1
RNA prepared from snap-frozen lung right lobes was analyzed for gene expression by quantitative PCR, using ABI Taqman following standard procedures.

tropoelastin = test: Tropoelastin ELISA in homogenized lung tissue of smoke-exposed rats; details: oral daily 30 days after 8 months smoke; ATRA 3 mg/kg, R667 0.07-0.7 mg/kg; FIG. 1
Method: FIG. 1 depicts the amount of tropoelastin (in ng) measured in rats after treatment as set forth in Example 1(B).
as §1

[3] = R667 0.07 mg/kg oral daily 30 days
[4] = R667 0.15 mg/kg oral daily 30 days
[5] = R667 0.7 mg/kg oral daily 30 days

## CC1(C)CCC(C)(C)c2cc(Cn3cccn3)c(C=Cc3ccc(C(=O)O)cc3)cc21 [R667, 4-[2-(5,5,8,8-tetramethyl-3-pyrazol-1-ylmethyl-5,6,7,8-tetrahydronaphthalen2-yl)-vinyl]-benzoic acid]
[1]; [3]
  ELN expression level from microarray, relative to the 8 months smoked rat: 2.8 fold
  VEGF expression level from microarray, relative to the 8 months smoked rat: 1.7 fold
[1]; [4]
  ELN expression level from microarray, relative to the 8 months smoked rat: 3.1 fold
  VEGF expression level from microarray, relative to the 8 months smoked rat: 1.5 fold
[1]; [5]
  ELN expression level from microarray, relative to the 8 months smoked rat: 3.8 fold
  VEGF expression level from microarray, relative to the 8 months smoked rat: 2.4 fold
[2]; [3]
  Adam17 gene expression relative to 8 months smoked rats: 3.5
  Angpt1 gene expression relative to 8 months smoked rats: 3.8
  Areg gene expression relative to 8 months smoked rats: 5.9
  Colla1 gene expression relative to 8 months smoked rats: 7.1
  Crabp2 gene expression relative to 8 months smoked rats: 2.0
  Csf2 gene expression relative to 8 months smoked rats: 1.5
  Cxcl1 gene expression relative to 8 months smoked rats: 3.3
  Cxcl2 gene expression relative to 8 months smoked rats: 2.3
  Cxcl5 gene expression relative to 8 months smoked rats: 50.1
  Cyp26a1 gene expression relative to 8 months smoked rats: 2.2
  EGFR gene expression relative to 8 months smoked rats: 4.8
  Eln gene expression relative to 8 months smoked rats: 5.6
  FGF7 gene expression relative to 8 months smoked rats: 2.1
  Flt1 gene expression relative to 8 months smoked rats: 1.7
  Hif1a gene expression relative to 8 months smoked rats: 1.7
  HpGF gene expression relative to 8 months smoked rats: 3.0
  Hyou1 gene expression relative to 8 months smoked rats: 2.7
  Il6 gene expression relative to 8 months smoked rats: 1.8
  Il8ra/CXCR1 gene expression relative to 8 months smoked rats: 3.8
  Il8rb/CXCR2 gene expression relative to 8 months smoked rats: 2.0
  Kdr gene expression relative to 8 months smoked rats: 1.3
  Mmp9 gene expression relative to 8 months smoked rats: 1.7
  Mmp12 gene expression relative to 8 months smoked rats: 4.9
  PDGFA gene expression relative to 8 months smoked rats: 4.3
  Pgf gene expression relative to 8 months smoked rats: 1.6
  Rbp1 gene expression relative to 8 months smoked rats: 2.1
  Serpina1 gene expression relative to 8 months smoked rats: 2.3
  Sftpa1 gene expression relative to 8 months smoked rats: 5.4
  Sftpb gene expression relative to 8 months smoked rats: 1.9
  Slpi gene expression relative to 8 months smoked rats: 3.6
  TNF gene expression relative to 8 months smoked rats: 3.3
  Tek gene expression relative to 8 months smoked rats: 1.4
  Tgfb1 gene expression relative to 8 months smoked rats: 1.4
  Tgfbr2 gene expression relative to 8 months smoked rats: 2.0
  Tgm2 gene expression relative to 8 months smoked rats: 16.2
  Timp3 gene expression relative to 8 months smoked rats: 3.5
  VEGFa gene expression relative to 8 months smoked rats: 1.6
[2]; [4]
  Adam17 gene expression relative to 8 months smoked rats: 3.6
  Angpt1 gene expression relative to 8 months smoked rats: 1.8
  Areg gene expression relative to 8 months smoked rats: 3.7
  Colla1 gene expression relative to 8 months smoked rats: 8.4
  Crabp2 gene expression relative to 8 months smoked rats: 1.5
  Csf2 gene expression relative to 8 months smoked rats: 1.9
  Cxcl1 gene expression relative to 8 months smoked rats: 2.9
  Cxcl2 gene expression relative to 8 months smoked rats: 1.6
  Cxcl5 gene expression relative to 8 months smoked rats: 50.0
  Cyp26a1 gene expression relative to 8 months smoked rats: 3.9
  EGFR gene expression relative to 8 months smoked rats: 3.2
  Eln gene expression relative to 8 months smoked rats: 6.1
  FGF7 gene expression relative to 8 months smoked rats: 2.1
  Flt1 gene expression relative to 8 months smoked rats: 1.8
  Hif1a gene expression relative to 8 months smoked rats: 1.4
  HpGF gene expression relative to 8 months smoked rats: 3.1
  Hyou1 gene expression relative to 8 months smoked rats: 3.3
  Il6 gene expression relative to 8 months smoked rats: 2.4
  Il8ra/CXCR1 gene expression relative to 8 months smoked rats: 4.5
  Il8rb/CXCR2 gene expression relative to 8 months smoked rats: 2.0
  Kdr gene expression relative to 8 months smoked rats: 1.9
  Mmp9 gene expression relative to 8 months smoked rats: 1.5
  Mmp12 gene expression relative to 8 months smoked rats: 5.9
  PDGFA gene expression relative to 8 months smoked rats: 2.9
  Pgf gene expression relative to 8 months smoked rats: 0.9
  Rbp1 gene expression relative to 8 months smoked rats: 3.5
  Serpina1 gene expression relative to 8 months smoked rats: 1.5
  Sftpa1 gene expression relative to 8 months smoked rats: 4.4
  Sftpb gene expression relative to 8 months smoked rats: 2.1
  Slpi gene expression relative to 8 months smoked rats: 1.6
  TNF gene expression relative to 8 months smoked rats: 4.2
  Tek gene expression relative to 8 months smoked rats: 1.3
  Tgfb1 gene expression relative to 8 months smoked rats: 2.0
  Tgfbr2 gene expression relative to 8 months smoked rats: 1.5
  Tgm2 gene expression relative to 8 months smoked rats: 28.3
  Timp3 gene expression relative to 8 months smoked rats: 2.9
  VEGFa gene expression relative to 8 months smoked rats: 2.3
[2]; [5]
  Adam17 gene expression relative to 8 months smoked rats: 7.8
  Angpt1 gene expression relative to 8 months smoked rats: 3.1
  Areg gene expression relative to 8 months smoked rats: 7.2
  Colla1 gene expression relative to 8 months smoked rats: 7.9
  Crabp2 gene expression relative to 8 months smoked rats: 1.4
  Csf2 gene expression relative to 8 months smoked rats: 2.9
  Cxcl1 gene expression relative to 8 months smoked rats: 6.5
  Cxcl2 gene expression relative to 8 months smoked rats: 3.4
  Cxcl5 gene expression relative to 8 months smoked rats: 81.6
  Cyp26a1 gene expression relative to 8 months smoked rats: 3.7
  EGFR gene expression relative to 8 months smoked rats: 4.0
  Eln gene expression relative to 8 months smoked rats: 9.4
  FGF7 gene expression relative to 8 months smoked rats: 1.6
  Flt1 gene expression relative to 8 months smoked rats: 2.6
  Hif1a gene expression relative to 8 months smoked rats: 2.0
  HpGF gene expression relative to 8 months smoked rats: 5.6
  Hyou1 gene expression relative to 8 months smoked rats: 5.8
  Il6 gene expression relative to 8 months smoked rats: 4.5
  Il8ra/CXCR1 gene expression relative to 8 months smoked rats: 4.2
  Il8rb/CXCR2 gene expression relative to 8 months smoked rats: 2.5
  Kdr gene expression relative to 8 months smoked rats: 1.7
  Mmp9 gene expression relative to 8 months smoked rats: 1.9
  Mmp12 gene expression relative to 8 months smoked rats: 7.3
  PDGFA gene expression relative to 8 months smoked rats: 4.5
  Pgf gene expression relative to 8 months smoked rats: 2.7
  Rbp1 gene expression relative to 8 months smoked rats: 3.9
  Serpina1 gene expression relative to 8 months smoked rats: 2.9
  Sftpa1 gene expression relative to 8 months smoked rats: 7.0
  Sftpb gene expression relative to 8 months smoked rats: 2.9
  Slpi gene expression relative to 8 months smoked rats: 4.4
  TNF gene expression relative to 8 months smoked rats: 4.0
  Tek gene expression relative to 8 months smoked rats: 1.3
  Tgfb1 gene expression relative to 8 months smoked rats: 3.2
  Tgfbr2 gene expression relative to 8 months smoked rats: 2.1
  Tgm2 gene expression relative to 8 months smoked rats: 24.6
  Timp3 gene expression relative to 8 months smoked rats: 4.8
  VEGFa gene expression relative to 8 months smoked rats: 2.9
[2]; rats smoked 8 months, then R667 daily 30 days
  Restoration of smoke-suppressed gene expression in lung: restore expression of these genes to near-normal levels
tropoelastin
  Tropoelastin in lung tissue (effect of treatment): partially restored
